Experimental data reported in the OPERA property sets (Mansouri et al. 2018).
≈ marks a conversion by molar mass, not a printed value.

Settings: not given

SMILES	logP	solubility
CCN1CCCC1=O	-0.04	–
CCOC(=O)C1CNC(=O)CC1C(=O)OCC (stereo not given)	-0.03	–
CC1=CC(=O)CC(C)(C)C1	1.7	–
COc1ccc(C(OC(C)=O)C(Cl)(Cl)Cl)cc1 (stereo not given)	3.72	–
CCCCn1ccc(=O)c(O)c1	0.72	–
CN(C)C(=O)n1nc(C(C)(C)C)nc1SCC(=O)O	1.62	–
CC(C)(C)NCC(O)c1cc(O)cc(O)c1 (stereo not given)	0.9	–
NS(=O)(=O)c1cc2c(cc1Cl)N=C(CSCc1ccccc1)NS2(=O)=O	1.73	–
CCOC(=O)OCn1ncc2c(O)ncnc21	0.21	–
CCOC(=O)n1c(-c2cscn2)nc2ccccc21	2.51	–
CC(=O)Oc1cc(C(C)C)c(OCCN(C)C)cc1C	3.17	–
COc1nc(NC(C)C)nc(NC(C)C)n1	2.99	–
N=C(N)NN=C1C=CC(=NNC(N)=O)C=C1	1.56	–
O=C(O)c1cccnc1Nc1cccc(C(F)(F)F)c1	4.43	–
COCCn1cnc2c(=N)n(C)c(=O)[nH]c21	-0.96	–
CCc1c(C(=O)O)c(=O)cnn1-c1ccc(Cl)cc1	-2.2	2510 mM (≈ 700 mg/mL)
OCC1CC(F)C(n2cnc3c(Cl)ncnc32)O1 (stereo not given)	0.32	–
Cc1cc(OCCNCC2CC(=O)c3ccccc3C2=O)c(C(C)C)cc1O (stereo not given)	4.25	–
Cc1ccc(C)c2c(C)cccc12	4.9	–
COc1ccc(C=O)cc1OC	1.22	–
NC(=O)c1ccccc1NCCCO	0.7	–

Same assay, conditions: 20 °C

SMILES	solubility
CC(C)OC(=O)c1ccccc1C(=O)OC(C)C	1.33 mM (≈ 0.332 mg/mL)
CCC(CC)C(=O)O	155 mM (≈ 18 mg/mL)
O=C1OC2(c3ccc(O)cc3Oc3cc(O)ccc32)c2ccccc21	0.15 mM (≈ 0.05 mg/mL)
N#Cc1ccncc1	384 mM (≈ 40 mg/mL)
CCC(Cl)Cl	23.9 mM (≈ 2.7 mg/mL)
CC(C)(CO)[N+](=O)[O-]	29400 mM (≈ 3500 mg/mL)
COP(=O)(OC)OC(=CCl)c1cc(Cl)c(Cl)cc1Cl	0.0301 mM (≈ 0.011 mg/mL)
C=CCOC(C)=O	280 mM (≈ 28 mg/mL)

Same assay, conditions: 23 °C

SMILES	solubility
CCOc1cc(OP(=S)(OC)OC)nc(CC)n1	0.137 mM (≈ 0.04 mg/mL)

Same assay, conditions: 23.0 °C

SMILES	log10 OH rate constant (cm³/molecule/s)
CC(=O)C(C)(C)O	-12
CC(C)CC(C)(C)O	-10.9
COC(OC)OC	-11.2

Same assay, conditions: 24 °C

SMILES	solubility
CN(Cc1ccccc1)N=O	30 mM (≈ 4.51 mg/mL)
CC1CN(N=O)CC(C)O1 (stereo not given)	860 mM (≈ 124 mg/mL)

Same assay, conditions: 24.0 °C

SMILES	log10 OH rate constant (cm³/molecule/s)
c1ccc2c(c1)sc1ccccc12	-11.1
Clc1cccc2c1Oc1ccccc1O2	-11.3

Same assay, conditions: 25 °C

SMILES	solubility
Cc1ccc2cc3ccc4ccccc4c3cc2c1	0.000227 mM (≈ 5.5e-05 mg/mL)
FCCl	151 mM (≈ 10.4 mg/mL)
NNc1ccccc1	1170 mM (≈ 127 mg/mL)
NNC(=O)c1ccncc1	1020 mM (≈ 140 mg/mL)
N#CCC#N	2010 mM (≈ 133 mg/mL)
COc1ccc(C(c2ccc(OC)cc2)C(Cl)(Cl)Cl)cc1	0.000289 mM (≈ 0.0001 mg/mL)
CC(C)N(C(=O)SCC(Cl)=CCl)C(C)C	0.0518 mM (≈ 0.014 mg/mL)
CN(C)c1ccc(N=NS(=O)(=O)[O-])cc1.[Na+]	79.6 mM
CCOC(=O)N(C)N=O	280 mM (≈ 37 mg/mL)
NC(N)=O	9070 mM (≈ 545 mg/mL)
CCCCCCCCCCCCCCCCCCCC	6.72e-06 mM (≈ 1.9e-06 mg/mL)
CC1(C)C2CC3OC3(C)C1C2 (stereo not given)	2.55 mM (≈ 0.388 mg/mL)
Cc1ncc(CO)c(CN)c1O	2970 mM (≈ 500 mg/mL)
CC(C)CCCCCOC(=O)c1ccccc1C(=O)OCCCCCC(C)C	0.00023 mM (≈ 9e-05 mg/mL)
CCCCOP(=O)(OCCCC)Oc1ccccc1	0.335 mM (≈ 0.096 mg/mL)
O=[N+]([O-])c1ccc(N=Nc2ccc(O)cc2)cc1	0.016 mM (≈ 0.00389 mg/mL)
c1ccc2c(c1)ccc1ccc3ccccc3c12	1.51e-05 mM (≈ 3.45e-06 mg/mL)
CCCCCCOC(=O)c1ccccc1C(=O)OCCCCCC	0.000149 mM (≈ 5e-05 mg/mL)
O=C(O)c1ccc[n+]([O-])c1	50.3 mM (≈ 7 mg/mL)
CNC1(c2ccccc2Cl)CCCCC1=O.Cl (stereo not given)	729 mM
CCN(N=O)C(N)=O	111 mM (≈ 13 mg/mL)
C=C(C)C(=C)C	3.97 mM (≈ 0.327 mg/mL)
c1ccc2c(c1)-c1cccc3cccc-2c13	0.00114 mM (≈ 0.000231 mg/mL)
CCCCCO[N+](=O)[O-]	2.7 mM (≈ 0.36 mg/mL)

Same assay, conditions: 25.0 °C

SMILES	log10 OH rate constant (cm³/molecule/s)
CCNc1nc(Cl)nc(NC(C)(C)C)n1	-11
Oc1ccc2ccccc2c1	-9.77
CC(C)CCO	-10.9
CC(=O)CC1C(CC=O)C1(C)C (stereo not given)	-10.3
CC(C)OCCO	-10.7
ClCBr	-13.1
FC(F)OC(Cl)C(F)(F)F (stereo not given)	-13.8
FC(C(F)(F)F)C(F)(F)F	-14.8
CC(=O)CCC(C)C	-11
COCC(C)OC (stereo not given)	-10.5
CCC(C)Cl (stereo not given)	-11.6
c1ccc2c(c1)-c1cccc3cccc-2c13	-10.3
C=CCOC(C)=O	-10.6
O=CC(Cl)Cl	-11.6

Same assay, conditions: 27.0 °C

SMILES	log10 OH rate constant (cm³/molecule/s)
Cc1ccco1	-10.2
Oc1ccccc1O	-9.98
CCC(=O)N(C)C	-10.7

Same assay, conditions: 30 °C

SMILES	solubility
Brc1ccccc1	2.84 mM (≈ 0.446 mg/mL)
